Measured values reported in PMC5587747, “A natural chalcone induces apoptosis in lung cancer cells: 3D-QSAR, docking and an in vivo/vitro assay” (Scientific Reports, 2017).
Like-named read-outs stand apart in the source and are kept apart here.

Columns and labels:
H292 cells = test: MTT cytotoxicity assay, H292 cells; format: cell-based, human
Method: (§1) The cytotoxicities of the tested flavonoids were assayed in ten human lung cancer cell lines (A549, H226, H358, H522, H292, H1944, H460, H1792, SW1573, and Calu-1) using MTT reduction assay. Cisplatin (DDP) was selected as a positive control. Compounds 1–37 were dissolved in DMSO to obtain a clear solution of 1 M, which was diluted to 400 mM, 200 mM, 100 mM, 75 mM, 50 mM, 37.5 mM, 25 mM, 10 mM and 1 mM respectively as stock solutions. The DMSO concentration in the medium was kept below 0.10%. Moreover, the stability of tested compounds in experimental buffer was confirmed at 24 h and 48 h respectively by means of HPLC analysis. Then the human lung cancer cells were placed in 96-well culture plates (5 × 10^4 cells/well) and incubated for 24 h. Then, the cells were pretreated with different concentrations of test samples (gradient concentrations 1.0, 10.0, 25.0, 37.5, 50, 75, 100, 200, 400, 1000 μM for compounds 1–37 and DDP) for 48 h. And cell growth was measured by MTT assays. The cytotoxicities against the lung cancer cells were determined systematically and expressed as IC50 value.

S180-bearing mice = test: In vivo antitumor activity in S180 implanted mice; conditions: 25 mg/kg oral daily, 12 days
Method: The animal experiments were carried out according to the National Institute of Health Guide for the Care and Use of Laboratory Animals. And the use of experimental animals was approved by the Animal Ethics Committee of Shenyang Pharmaceutical University. Male Kunming mice, were housed in separate cages under standard conditions (20–24 °C), relative humidity (55% ± 5%) and a 12 h light/12 h dark cycle, and allowed to acclimatize for 3 days prior to the start of experiment. Cultured S180 cells were harvested and washed with sterilized PBS (pH 7.2) three times and resuspended at a density of 6 × 10^6 cells/ml. Mice received subcutaneous implants of 0.2 mL/mouse on the right flank by means of hypodermic injection. Then the mice were divided randomly into 5 groups, including model, positive control and treatment groups with 10 mice in each group after inoculation for 24 h. […] Both groups received oral administrations via an intubation needle every day. […] The weight of the mice was recorded every day throughout the experiment. Finally, the mice were sacrificed by cervical dislocation just 2 h after the last administration. Then the tumor and spleen tissues were harvested and weighed immediately. After that the in vivo tumor inhibition ratio was calculated as: Inhibition ratio (%) = 100((A−B)/A), in which A represents the average tumor weight of the control group and B is recorded as the tumor weight of the administration group. Then, the spleen index was recorded using the following formula:
Spleen index = the final weight of spleen (mg)/the final average body weight (g) without tumor.

Calu-1 = test: MTT cytotoxicity assay, Calu-1 cells; format: cell-based, human; conditions: DDP 10 μM
Method: as §1

H358 = test: MTT cytotoxicity assay, H358 cells; format: cell-based, human; conditions: DDP 10 μM
Method: as §1

H1944 = test: MTT cytotoxicity assay, H1944 cells; format: cell-based, human; conditions: DDP 10 μM
Method: as §1

H522 = test: MTT cytotoxicity assay, H522 cells; format: cell-based, human; conditions: DDP 10 μM
Method: as §1

H1792 = test: MTT cytotoxicity assay, H1792 cells; format: cell-based, human; conditions: DDP 10 μM
Method: as §1

A549 = test: MTT cytotoxicity assay, A549 cells; format: cell-based, human; conditions: DDP 10 μM
Method: as §1

SW1573 = test: MTT cytotoxicity assay, SW1573 cells; format: cell-based, human; conditions: DDP 10 μM
Method: as §1

H226 = test: MTT cytotoxicity assay, H226 cells; format: cell-based, human; conditions: DDP 10 μM
Method: as §1

H460 = test: MTT cytotoxicity assay, H460 cells; format: cell-based, human; conditions: DDP 10 μM
Method: as §1

[1] = Homo sapiens, NCI-H292, H292 cells, MTT, 48 h, Table S2, read-out: IC50
[2] = Homo sapiens, NCI-H292, H292 cells, Table S2, read-out: pIC50 (converted)
[3] = Homo sapiens, NCI-H292, H292 cells, MTT, 48 h, read-out: IC50

Row | Compound | IC50 (H292 cells; [1]) [µM] | IC50 (H292 cells; [2]) [µM] | further results
1 | COc1cccc(-c2cc(=O)c3ccc4occc4c3o2)c1 [Compound 13] | 615 | 615 | –
2 | CC1(C)C=Cc2c(ccc3c2O[C@H](c2ccc4c(c2)OCO4)CC3=O)O1 [Compound 37] | – | 61.5 | IC50 (H292 cells; [3]): 61.5 µM
3 | O=c1c(-c2ccc3c(c2)OCO3)coc2cc(O)ccc12 [Compound 29] | 1000 | 1000 | –
4 | COc1c2ccoc2cc2oc(-c3ccccc3)cc(=O)c12 [Compound 20] | > 1000 | > 1000 | –
5 | COc1c(-c2ccccc2)oc2c(cc(O)c3occc32)c1=O [Compound 11, demethylate kanjone] | > 1000 | > 1000 | –
6 | COc1ccc2c(=O)c(OC)c(-c3ccc4c(c3)OCO4)oc2c1 [Compound 24] | 394 | 394 | –
7 | genistein [Compound 21] | – | – | IC50 (H292 cells; H292 cells, MTT, 48 h, Table S2, read-out: IC50): > 1000 µM; pIC50 (H292 cells; H292 cells, Table S2): < 3.000
8 | COc1ccc(-c2coc3cc(CC=C(C)C)ccc3c2=O)cc1 [Compound 26] | – | 294 | IC50 (H292 cells; [3]): 294 µM
9 | COc1ccc(O)cc1-c1oc2c(ccc3occc32)c(=O)c1OC [Compound 18] | > 1000 | > 1000 | –
10 | COc1cc(OC)cc(-c2cc(=O)c3ccc4occc4c3o2)c1 [Compound 15] | – | 158 | IC50 (H292 cells; [3]): 158 µM
11 | O=c1cc(-c2ccccc2)oc2c1cc(O)c1occc12 [Compound 8] | 750 | 750 | –
12 | COc1ccc2c(=O)c(OC)c(-c3ccc(OC)c(OC)c3)oc2c1 [Compound 25] | 1000 | 1000 | –
13 | COc1ccc(-c2coc3cc(O)ccc3c2=O)cc1 [Compound 27] | > 1000 | > 1000 | –
14 | O=c1cc(-c2ccccc2)oc2c1c(O)cc1occc12 [Compound 3, kanjone] | > 1000 | > 1000 | –
15 | COc1ccc(-c2coc3c(O)c(O)ccc3c2=O)cc1O [Compound 30] | 501 | 501 | –
16 | O=c1c(-c2ccc(O)cc2)coc2cc(O)cc(O)c12 [Compound 28] | 631 | 631 | –
17 | CC1(C)C=Cc2c(ccc3c2O[C@H](c2ccccc2)CC3=O)O1 [Compound 36] | – | 50 | IC50 (H292 cells; [3]): 50 µM

Row | Compound | IC50 (H292 cells; [1]) [µM] | IC50 (H292 cells; [2]) [µM] | further results
18 | O=c1cc(-c2ccc(O)cc2)oc2c1ccc1occc12 [Compound 4] | 705 | 705 | –
19 | COc1c2ccoc2cc2oc(-c3ccc4c(c3)OCO4)cc(=O)c12 [Compound 22] | > 1000 | > 1000 | –
20 | COc1cc(O)cc(-c2oc3c(ccc4occc43)c(=O)c2OC)c1 [Compound 19] | > 1000 | > 1000 | –
21 | O=c1cc(-c2ccc3c(c2)OCO3)oc2c1ccc1occc12 [Compound 6] | > 1000 | > 1000 | –
22 | COc1c(-c2ccc3c(c2)OCO3)oc2c3c(ccc2c1=O)OC(C)(C)C=C3 [Compound 12, pongapinnol-C] | – | 100 | IC50 (H292 cells; [3]): 100 µM
23 | COc1ccc(OC)c(-c2cc(=O)c3ccc4occc4c3o2)c1 [Compound 16] | 374 | 374 | –
24 | COc1cc(O)cc(-c2coc3cc(O)ccc3c2=O)c1 [Compound 31] | > 1000 | > 1000 | –
25 | CC1(C)C=Cc2c(ccc(C(=O)/C=C/c3ccc4c(c3)OCO4)c2O)O1 [Compound 35] | – | 61.5 | IC50 (H292 cells; [3]): 61.5 µM
26 | COc1cc2c(=O)cc(-c3ccccc3)oc2c2ccoc12 [Compound 9, 6-hydroxy,3-methoxyfuro[8,7:4′′,5′′]flavone] | 975 | 975 | –
27 | O=P1(N(CCCl)CCCl)NCCCO1 (stereo not shown) [CTX, Cyclophosphamide, reference compound] | – | – | Body weight/g After experiment (S180-bearing mice): 28.09 ± 0.56 g; Body weight/g Before experiment (S180-bearing mice): 35.97 ± 0.89 g; Inhibitory rate (%) (S180-bearing mice): 80.75%; Tumor weight/g (S180-bearing mice; mean ± SE): 1.55 ± 0.30 g
28 | COc1cc(OC)c(Cl)c(-c2cc(=O)c3ccc4occc4c3o2)c1Cl [Compound 1] | 490 | 490 | –
29 | COc1ccc(-c2coc3c(O)c(OC)ccc3c2=O)cc1 [Compound 33] | – | 216 | IC50 (H292 cells; [3]): 216 µM
30 | COc1c(-c2ccccc2)oc2c(ccc3occc32)c1=O [Compound 10] | 794 | 794 | –
31 | N.N.[Cl][Pt][Cl] [DDP, Cisplatin, reference compound] | – | – | inhibition rate (IR %) (Calu-1): 59.1%; inhibition rate (IR %) (H358): 81.2%; inhibition rate (IR %) (H1944): 40.4%; inhibition rate (IR %) (H522): 69.6%; inhibition rate (IR %) (H1792): 44.6%; inhibition rate (IR %) (A549): 76.4%; inhibition rate (IR %) (H292 cells; H292, DDP 10 μM): 91.3%; inhibition rate (IR %) (SW1573): 69.4%; inhibition rate (IR %) (H226): 87.4%; inhibition rate (IR %) (H460): 89.1%
32 | O=c1cc(-c2cccc(O)c2)oc2c1ccc1occc12 [Compound 14, isopongaglabol] | 630 | 630 | –
33 | COc1ccc(-c2coc3c(OC)c(O)ccc3c2=O)cc1 [Compound 32] | 776 | 776 | –
